# Source: paper PMC12751000, “Dual Agonist/Antagonist Modulation of α9-Containing Nicotinic Acetylcholine Receptors by 2‑Ammoniumethyl Ethers of Stilbenol and Stilbenol Analogues” (Journal of Medicinal Chemistry, 2025)
# Entries after “also recorded” stand apart in the source; their conditions may differ. Read-outs that look alike come from different tables or passages of the source. Where a SMILES comes first, the peptide text is derived from it. Bridges are numbered along the chain shown (N, C = ends).
# Assays:
# hα9α10 nAChRs [1] = biological target: T1, hα9α10 nAChRs (Homo sapiens, UniProt Q9GZZ6+Q9UGM1); experiment: cell-based
# T1 construct: host or cells: Xenopus laevis oocytes, cRNA-injected (α9:α10 cRNA ratio 1:1)
# T1 sequence (Q9UGM1 26-479 limits assumed): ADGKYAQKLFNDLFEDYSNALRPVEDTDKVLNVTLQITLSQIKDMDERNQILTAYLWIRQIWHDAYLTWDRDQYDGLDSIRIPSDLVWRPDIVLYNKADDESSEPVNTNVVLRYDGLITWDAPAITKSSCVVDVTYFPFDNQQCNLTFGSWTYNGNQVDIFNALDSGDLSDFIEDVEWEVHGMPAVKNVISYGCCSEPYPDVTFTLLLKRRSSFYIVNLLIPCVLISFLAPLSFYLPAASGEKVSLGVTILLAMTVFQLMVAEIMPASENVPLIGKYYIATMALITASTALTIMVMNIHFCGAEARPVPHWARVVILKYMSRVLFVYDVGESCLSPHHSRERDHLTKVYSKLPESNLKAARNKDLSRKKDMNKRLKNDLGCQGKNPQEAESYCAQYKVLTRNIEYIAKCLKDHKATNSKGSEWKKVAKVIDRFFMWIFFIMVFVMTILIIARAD
# T1 sequence (Q9GZZ6 25-450): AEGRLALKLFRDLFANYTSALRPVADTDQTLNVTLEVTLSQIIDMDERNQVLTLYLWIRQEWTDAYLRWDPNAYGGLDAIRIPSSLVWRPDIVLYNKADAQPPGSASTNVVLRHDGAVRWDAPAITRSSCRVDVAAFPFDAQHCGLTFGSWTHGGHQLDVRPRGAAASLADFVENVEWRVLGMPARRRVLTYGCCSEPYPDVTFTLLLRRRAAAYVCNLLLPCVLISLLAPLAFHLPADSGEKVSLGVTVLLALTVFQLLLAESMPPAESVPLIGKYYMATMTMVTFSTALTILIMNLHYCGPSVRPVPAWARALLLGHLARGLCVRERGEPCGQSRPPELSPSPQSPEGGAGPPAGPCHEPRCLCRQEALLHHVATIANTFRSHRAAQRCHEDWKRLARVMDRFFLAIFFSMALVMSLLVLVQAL
# [2] = test system: BzATP-induced release of IL-1β from human monocytic THP-1 cells; experiment: BzATP-induced IL-1β release by LPS-primed human monocytic THP-1 cells (ELISA); type: cell-based; details: for Effect on the inhibitory effect of ACh on BzATP-induced IL-1β release: LPS 1 μg/mL 5 h, BzATP 100 μM 40 min; for Effect on BzATP-induced IL-1β release in the absence of ACh: LPS-primed THP-1
# Method: THP-1 cells were primed with lipopolysaccharide (LPS; 1 μg/mL, 5 h) followed by stimulation with the P2X7 receptor agonist BzATP (2′/3′-O-(4-benzoylbenzoyl)-adenosine-5′-triphosphate, tri(triethylammonium) salt) for 40 min to induce IL-1β release, which was quantified by ELISA.
# Experiments on human monocytic THP-1 cells (German Collection of Microorganisms and Cell Cultures, Braunschweig, Germany, Cat# ACC16) were performed as described before. […] The supernatants were collected and stored for later IL-1β measurements using the Human IL-1β/IL-1F2 DuoSet ELISA from R&D Systems (Minneapolis MN, USA, Cat# DY201). Cell viability was assessed by measuring lactate dehydrogenase (LDH) activity in the supernatants using the CytoTox 96 Non-Radioactive Cytotoxicity Assay (Promega, Madison WI, USA; Cat# G1780). LDH activities were expressed as a percentage of total LDH activity from lysed control cells. Data on the BzATP-induced IL-1β release and LDH activity were analyzed using SPSS (Version 29.0.2.0, IBM, Armonk, NY, United States) and visualized using Inkscape version 0.48.5 r10040 (Free and Open Source Software licensed under the GPL). The data were analyzed first by the Friedman test.
# hα9α10 nAChRs [3] = biological target: T1, hα9α10 nAChRs; experiment: Two-electrode voltage clamp, compound-evoked currents (compound applied alone) at hα9α10 nAChRs in Xenopus laevis oocytes; type: cell-based; details: compound applied alone (300 pM to 30 μM), normalized to response at highest concentration
# Description: (§1) The protocols were approved by the Animal Ethics Committees of the Victor Chang Cardiac Research Institute, Sydney, and the University of Wollongong (project number AE 20/17). Human α9 and α10 nAChR clones were obtained from OriGene (Rockville, MD, USA) and subcloned into the pT7TS vector. The human α7 nAChR clone, in the plasmid pMXT, was kindly provided by J. Lindstrom (University of Pennsylvania, USA). Constructs of human nAChR subunits were linearized and used for in vitro cRNA transcription with the SP6/T7 mMessage mMachine transcription kit (AMBION, Forster City, CA, USA).
# (§2) The cRNA concentration was verified spectrophotometrically and by gel electrophoresis.
# (§3) Electrophysiological recordings were conducted 2–5 days after cRNA injection using a HiClamp automated two-electrode voltage-clamp screening system (MultiChannel Systems GmbH, Reutlingen, Germany) with a holding potential of –80 mV. To prevent the activation of endogenous Ca^2+-activated chloride channels due to the Ca^2+ permeability of α9-containing nAChRs, oocytes were preincubated with 100 μM BAPTA-AM for approximately 3 h.
# Concentration–response experiments assessing compound-evoked currents were performed by initially superfusing α9-containing nAChRs oocytes with ND115 solution. Test compounds were then applied at concentrations ranging from 300 pM to 30 μM, followed by a 3 min washout period.
# hα9 nAChRs [4] = biological target: T2, hα9 nAChRs (Homo sapiens, UniProt Q9UGM1); experiment: Two-electrode voltage clamp, compound-evoked currents at hα9 nAChRs in Xenopus laevis oocytes; type: cell-based; details: compound applied alone
# T2 construct: host or cells: Xenopus laevis oocytes, cRNA-injected
# T2 sequence (Q9UGM1 26-479 limits assumed): as the sequence (Q9UGM1 26-479 limits assumed) above
# hα7 nAChRs [5] = biological target: T3, hα7 nAChRs (Homo sapiens, UniProt P36544); experiment: Two-electrode voltage clamp, inhibition of ACh-evoked currents at hα7 nAChRs in Xenopus laevis oocytes; type: cell-based
# T3 construct: host or cells: Xenopus laevis oocytes, cRNA-injected (10 ng)
# T3 sequence (P36544 23-502): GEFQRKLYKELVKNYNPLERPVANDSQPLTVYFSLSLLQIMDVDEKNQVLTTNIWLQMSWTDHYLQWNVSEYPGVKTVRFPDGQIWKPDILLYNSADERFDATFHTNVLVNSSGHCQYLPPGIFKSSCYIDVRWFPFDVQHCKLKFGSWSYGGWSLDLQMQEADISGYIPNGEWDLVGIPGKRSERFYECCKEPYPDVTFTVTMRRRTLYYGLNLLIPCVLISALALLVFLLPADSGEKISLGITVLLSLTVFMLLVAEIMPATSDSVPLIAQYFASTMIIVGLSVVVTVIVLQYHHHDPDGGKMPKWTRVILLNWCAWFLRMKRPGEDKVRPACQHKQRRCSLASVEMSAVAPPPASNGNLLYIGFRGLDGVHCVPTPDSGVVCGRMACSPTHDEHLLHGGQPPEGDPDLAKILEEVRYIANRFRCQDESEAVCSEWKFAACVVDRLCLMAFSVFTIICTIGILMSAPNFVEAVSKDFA
# hα9 nAChRs [6] = biological target: T2, hα9 nAChRs; experiment: Two-electrode voltage clamp, inhibition of ACh-evoked currents at hα9 nAChRs in Xenopus laevis oocytes; type: cell-based
# hα7 nAChRs [7] = biological target: T3, hα7 nAChRs; experiment: Two-electrode voltage clamp, compound-evoked currents at hα7 nAChRs in Xenopus laevis oocytes; type: cell-based; details: compound applied alone
# Method: Additionally, five compounds of the series were tested on the homomeric hα7 and hα9 nAChRs.
# as §1, §2, §3
# hα9α10 nAChRs [8] = biological target: T1, hα9α10 nAChRs; experiment: Two-electrode voltage clamp, inhibition of ACh-evoked currents at hα9α10 nAChRs expressed in Xenopus laevis oocytes; type: cell-based
# Description: as §1, §2, §3
# For concentration–response experiments assessing modulation of ACh-evoked responses, oocytes were initially superfused with ND96 or ND115 solution, depending on the receptor subtype. […] After ACh application, a 3 min washout was performed. Oocytes were then incubated with the test compound for 5 min, followed by coapplication of the compound and ACh in a continuously flowing bath solution. All compounds were prepared in ND96 or ND115 with 0.1% bovine serum albumin (BSA).
# chick α7 nAChRs = details: cited from earlier work
# hα7 = details: ref: more recent studies, citation number not given, cited from earlier work
# α7-nAChR = details: read-out: α7-nAChR affinity (Ki); ref: previously reported, citation number not given; cited from earlier work
smiles,measurement,setting,value
"CC[C@H](C)[C@@H]1NC(=O)[C@H](CC(=O)O)NC(=O)[C@@H]2CCCN2C(=O)[C@H](CC(N)=O)NC(=O)[C@H](CC(N)=O)NC(=O)[C@H](C(C)C)NC(=O)[C@H](CO)NC(=O)[C@@H]2CSSC[C@H](NC(=O)CN)C(=O)N[C@@H](CSSC[C@@H](C(N)=O)NC1=O)C(=O)N[C@@H](CO)C(=O)N[C@@H](Cc1cnc[nH]1)C(=O)N1CCC[C@H]1C(=O)N[C@@H](C)C(=O)N2 [α-conotoxin Mr1.1] (H-GCCSHPACSVNNPDIC-NH2; disulfide 2-8, 3-16)",IC50,hα9α10 nAChRs [1],82.9 nM
"CC[C@H](C)[C@@H]1NC(=O)[C@H](CC(=O)O)NC(=O)[C@@H]2CCCN2C(=O)[C@H](CC(N)=O)NC(=O)[C@H](CC(N)=O)NC(=O)[C@H](C(C)C)NC(=O)[C@H](CO)NC(=O)[C@@H]2CSSC[C@H](NC(=O)CN)C(=O)N[C@@H](CSSC[C@@H](C(N)=O)NC1=O)C(=O)N[C@@H](CO)C(=O)N[C@@H](Cc1c[nH]cn1)C(=O)N1CCC[C@H]1C(=O)N[C@@H](C)C(=O)N2 [α-conotoxin Mr1.1] (H-GCCSHPACSVNNPDIC-NH2; disulfide 2-8, 3-16)",Hill coefficient (n H),hα9α10 nAChRs [1],1.3
"C[N+](C)(CCOc1ccc(COc2ccccc2)cc1)C1CCCCC1.[I-] [Compound 22, N,N-Dimethyl-N-(2-(4-(phenoxymethyl)phenoxy)ethyl)cyclohexanaminium Iodide]",Effect on the inhibitory effect of ACh on BzATP-induced IL-1β release,[2]; compound 100 pM + ACh 10 μM,efficiently antagonized the inhibitory effect of ACh
same,Effect on BzATP-induced IL-1β release in the absence of ACh,[2]; compound 100 pM,minor reduction
same,Effect on the inhibitory effect of ACh on BzATP-induced IL-1β release,[2]; compound 100 nM + ACh 10 μM,mild antagonistic effects
same,Effect on BzATP-induced IL-1β release in the absence of ACh,[2]; compound 100 nM,effectively and significantly inhibited
same,EC50,hα9α10 nAChRs [3],failed to activate; also recorded: lacked agonist activity; also recorded: No activity
same,EC50,hα9 nAChRs [4],did not elicit any current; also recorded: lacked agonist activity; also recorded: No activity
same,IC50 ratio to Cpd 1,hα7 nAChRs [5],0.8
same,n H (Hill coefficient of inhibition),hα7 nAChRs [5]; 100 μM ACh,1.5
same,IC50,"hα7 nAChRs [5]; 100 μM ACh, 5 min preincubation",336 nM
same,IC50 ratio to Cpd 1,hα9 nAChRs [6],0.1
same,n H (Hill coefficient of inhibition),hα9 nAChRs [6]; 50 μM ACh,1.5
same,IC50,"hα9 nAChRs [6]; 50 μM ACh, 5 min preincubation",26.2 nM
same,EC50,hα7 nAChRs [7],lacked agonist activity; also recorded: No activity
same,IC50 ratio to Cpd 1,hα9α10 nAChRs [8],0.3
same,n H (Hill coefficient of inhibition),hα9α10 nAChRs [8]; 6 μM ACh,1.7
same,IC50,"hα9α10 nAChRs [8]; 6 μM ACh, 5 min preincubation with compound, holding potential −80 mV",16 nM
"CC[N+](CC)(CC)CCOc1ccc(/C=C/c2ccccc2)cc1 [Compound 1, 2-triethylammonium ethyl ether of 4-stilbenol]",Effect on the inhibitory effect of ACh on BzATP-induced IL-1β release,[2]; compound 100 pM + ACh 10 μM,efficiently antagonized the inhibitory effect of ACh
same,Effect on BzATP-induced IL-1β release in the absence of ACh,[2]; compound 100 pM,only slightly reduced
same,Effect on the inhibitory effect of ACh on BzATP-induced IL-1β release,[2]; compound 100 nM + ACh 10 μM,efficiently antagonized the inhibitory effect of ACh
same,Effect on BzATP-induced IL-1β release in the absence of ACh,[2]; compound 100 nM,only slightly reduced; also recorded: failed to reduce IL-1β release
same,IC50,"chick α7 nAChRs; chick α7, 100 μM ACh, ref: citation number not given",90 to 110 nM
same,Currents evoked when applied alone,"chick α7 nAChRs; wild-type chick α7 nAChRs, ref: previous findings, citation number not given",did not evoke currents
same,IC50,hα7; 200 μM ACh,41 nM
same,IC50,hα7; 1 mM ACh,1990 nM
same,Ki,α7-nAChR,104 nM
